Experiments:
Assay type in all cases: biochemical
TAK1A-TAB fusion protein = target: T1, TAK1A-TAB fusion protein (Homo sapiens, UniProt O43318); assay: TAK-1 inhibition assay, radiometric filter binding assay; conditions: 50 μM ATP, 12 μM bovine myelin basic protein, 20 nM TAK1A-TAB fusion protein
T1 construct: using 20 nM TAK1A-TAB fusion protein
T1 sequence (O43318 with tags, fused parts or gaps isoform O43318-2 limits assumed): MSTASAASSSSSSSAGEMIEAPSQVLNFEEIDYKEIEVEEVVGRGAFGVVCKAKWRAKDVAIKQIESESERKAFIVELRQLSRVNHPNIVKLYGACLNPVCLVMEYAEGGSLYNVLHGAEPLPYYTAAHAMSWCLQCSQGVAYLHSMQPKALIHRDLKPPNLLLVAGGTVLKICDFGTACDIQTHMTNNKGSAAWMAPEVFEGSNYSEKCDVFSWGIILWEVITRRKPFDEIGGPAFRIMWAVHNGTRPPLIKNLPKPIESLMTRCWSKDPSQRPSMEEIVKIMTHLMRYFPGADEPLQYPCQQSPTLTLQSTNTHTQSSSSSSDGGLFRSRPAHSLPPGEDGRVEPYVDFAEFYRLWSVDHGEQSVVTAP
Experimental: Compounds were screened for their ability to inhibit TAK1A kinase activity using a radiometric filter binding assay. Reactions were carried out in a solution containing Buffer A (100 mM HEPES (pH 7.5), 10 mM MgCl2), 25 mM NaCl, 2 mM DTT, and 1.5% DMSO. Final substrate concentrations in the assay were 50 μM ATP (a mixture of unlabeled ATP (Sigma Chemicals, St Louis, Mo.) and ^33P-labeled ATP (PerkinElmer Life Sciences, Boston, Mass.) for a final specific activity of 50 Ci/mol), and 12 μM bovine myelin basic protein (MBP, Vertex Pharmaceuticals, Cambridge, Mass.). Reactions were carried out at ambient temperature (˜20° C.) using 20 nM TAK1A-TAB fusion protein. Under these conditions the extent of reaction is linear with time for a period of 2 hours.
A test compound of the present invention (1 μL in DMSO) was combined with ATP and Buffer A in a final volume of 47 μL in a 96 well plate. Typically, a 6 point titration was conducted by preparing serial dilutions (from 10 mM compound stocks) with DMSO of the test compounds of the present invention in daughter plates, for final concentrations spanning 0.046 μM to 3.73 μM. The reaction was initiated by the addition of 20 μl of an enzyme stock solution consisting of TAK1A-TAB fusion (described by Sugita, T. et al. in Biochem. Biophys. Res. Comm. 2002, 297, 1277-1281), MBP, Buffer A, NaCl, and DTT. The reaction was allowed to proceed for two hours at ambient temperature, then quenched with an equal volume of 10 mM unlabeled ATP in 10% trichloroacetic acid. A 110 μL aliquot of the quenched reaction was transferred to a Multiscreen PH filter plate (Millipore, Billerica, Mass.) and allowed to incubate at ambient temperature overnight (typically 16-20 hours). Following incubation the filter plates were washed with 3×150 μL aliquots of 5% trichloroacetic acid using a modified Biotek Elx405 plate washer. A 70 μL aliquot of Microscint 20 scintillation fluid (PerkinElmer) was added to each well, and the plate was then sealed and read on a TopCount NXT microplate scintillation counter (PerkinElmer). The Ki values were determined from the rate data as a function of inhibitor concentration.

c-KIT = target: T2, c-KIT (Homo sapiens, UniProt P10721); assay: Inhibition of c-KIT, radiometric filter-binding assay; conditions: 700 μM ATP, 0.5 mg/mL pE4Y, room temperature
T2 construct: 0.02% BSA and 25 nM c-KIT
Outline: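 Radiometric filter-binding: 25 nM c-KIT (enzyme in the Solution 2 mix) with poly(Glu,Tyr) 4:1 substrate at 0.5 mg/mL and [γ-^33P]ATP at 700 μM (both final), in HEPES pH 7.5/MgCl2/NaCl/DTT/BSA with 2.5% DMSO. Incubated 20 min at room temperature, stopped with TCA, and ^33P incorporation counted on filters. 12-point titration, final compound typically 0.01-5 μM; IC50 or Ki from curve fit.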

SYK = SYK (Homo sapiens, UniProt P43405); assay: SYK enzyme assay, coupled enzyme assay; conditions: 200 μM ATP, 4 μM poly Gly-Tyr peptide, 30° C.
Outline: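 Pyruvate kinase/lactate dehydrogenase-coupled NADH assay in HEPES pH 7.5 with MgCl2, NaCl, DTT and 1.5% DMSO, using 200 μM ATP, 4 μM poly Gly-Tyr and 25 nM enzyme. Compound at 30 μM final was preincubated ~10 min at 30 °C. Rates were read over 5 min at 30 °C and Ki derived.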

T2 sequence (P10721 26-976): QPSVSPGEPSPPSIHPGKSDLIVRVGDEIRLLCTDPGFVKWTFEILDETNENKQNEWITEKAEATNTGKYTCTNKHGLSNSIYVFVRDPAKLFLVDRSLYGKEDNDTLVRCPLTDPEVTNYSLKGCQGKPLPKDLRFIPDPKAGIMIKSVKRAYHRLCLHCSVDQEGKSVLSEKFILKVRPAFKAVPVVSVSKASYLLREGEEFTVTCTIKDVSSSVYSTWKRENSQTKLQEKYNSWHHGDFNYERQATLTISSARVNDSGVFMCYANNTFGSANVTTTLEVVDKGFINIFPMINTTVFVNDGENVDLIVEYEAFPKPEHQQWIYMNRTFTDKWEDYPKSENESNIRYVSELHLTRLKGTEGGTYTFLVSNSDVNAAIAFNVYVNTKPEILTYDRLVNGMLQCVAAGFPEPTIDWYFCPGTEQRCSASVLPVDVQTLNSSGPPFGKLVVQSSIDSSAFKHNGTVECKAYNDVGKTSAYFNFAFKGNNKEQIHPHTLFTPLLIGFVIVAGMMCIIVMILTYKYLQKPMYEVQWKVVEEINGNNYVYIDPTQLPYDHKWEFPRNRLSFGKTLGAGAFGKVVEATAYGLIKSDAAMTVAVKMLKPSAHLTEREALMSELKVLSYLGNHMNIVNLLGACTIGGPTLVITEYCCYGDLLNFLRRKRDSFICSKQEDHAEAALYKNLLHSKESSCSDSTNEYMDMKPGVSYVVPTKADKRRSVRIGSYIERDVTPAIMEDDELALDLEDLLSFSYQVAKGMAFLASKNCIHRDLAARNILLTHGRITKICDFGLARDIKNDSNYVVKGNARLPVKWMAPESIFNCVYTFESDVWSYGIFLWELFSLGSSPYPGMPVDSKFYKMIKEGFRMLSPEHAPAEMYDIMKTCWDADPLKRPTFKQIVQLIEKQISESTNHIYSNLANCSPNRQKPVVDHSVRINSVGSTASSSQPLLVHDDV

Row | Structure (SMILES) | Ki (TAK1A-TAB fusion protein) | Ki (c-KIT) | Ki (SYK)
1 | CN1CCN(C(=O)[C@H]2C[C@@H]2c2cnc3[nH]cc(-c4oncc4-c4cccc(F)c4F)c3c2)CC1 (relative stereo) [Compound 142, trans-(2-{3-[4-(2,3-Difluoro-phenyl)-isoxazol-5-yl]-1H-pyrrolo[2,3-b]pyridin-5-yl}-cyclopropyl)-(4-methyl-piperazin-1-yl)-methanone] | 0.2 to 1 µM | < 0.2 µM | 
2 | c1ccc(-c2cnoc2-c2c[nH]c3ncccc23)cc1 [Compound 35, 3-[4-Phenyl-isoxazol-5-yl]-1H-pyrrolo[2,3-b]pyridine] |  |  | 1 to 12.5 µM
3 | Fc1ccc(F)c(-c2cnoc2-c2c[nH]c3ncccc23)c1F [Compound 41, 3-[4-(2,3,6-Trifluoro-phenyl)-isoxazol-5-yl]-1H-pyrrolo [2,3-b]pyridine] |  |  | 1 to 12.5 µM
4 | Fc1cccc(-c2cnoc2-c2c[nH]c3ncc(Cl)cc23)c1F [Compound 44, 3-[4-(2,3-Difluoro-phenyl)-isoxazol-5-yl]-5-chloro-1H-pyrrolo[2,3-b]pyridine] |  |  | 1 to 12.5 µM
5 | Cc1cnc2[nH]cc(-c3oncc3-c3cccc(F)c3F)c2c1 [Compound 46, 3-[4-(2,3-Difluoro-phenyl)-isoxazol-5-yl]-5-methyl-1H-pyrrolo[2,3-b]pyridine] | 1 to 12.5 µM | 0.2 to 1 µM | 
6 | OCc1cnc2[nH]cc(-c3oncc3-c3cccc(F)c3F)c2c1 [Compound 55, {3-[4-(2,3-Difluoro-phenyl)-isoxazol-5-yl]-1H-pyrrolo[2,3-b]pyridin-5-yl}-methanol] |  | 0.2 to 1 µM | 
7 | COc1cnc2[nH]cc(-c3nncn3-c3cccc(F)c3F)c2c1 [Compound 108, 3-[4-(2,3-Difluoro-phenyl)-4H-[1,2,4]triazol-3-yl]-5-methoxy-1H-pyrrolo[2,3-b]pyridine] |  | 0.2 to 1 µM | 
8 | Fc1cccc(-n2cnnc2-c2c[nH]c3ncc(-c4ccc(N5CCNCC5)nc4)cc23)c1F [Compound 111, 3-[4-(2,3-Difluoro-phenyl)-4H-[1,2,4]triazol-3-yl]-5-(6-piperazin-1-yl-pyridin-3-yl)-1H-pyrrolo[2,3-b]pyridine] | 1 to 12.5 µM | 0.2 to 1 µM | 
9 | CN(C)C1CCC(c2cnc3[nH]cc(-c4oncc4-c4cccc(F)c4F)c3c2)CC1 (centres unmarked) [Compound 141, (4-{3-[4-(2,3-Difluoro-phenyl)-isoxazol-5-yl]-1H-pyrrolo[2,3-b]pyridin-5-yl}-cyclohexyl)-dimethylamine] | 0.2 to 1 µM | < 0.2 µM | 
10 | NC(=O)c1ccc(-c2cnc3[nH]cc(-c4oncc4-c4cccc(F)c4F)c3c2)cc1 [Compound 153] |  | < 0.2 µM | 
11 | C[N+]1(C)CCN(c2ccc(-c3cnc4[nH]cc(-c5oncc5-c5cccc(F)c5F)c4c3)cc2)CC1 [Compound 155] | < 0.2 µM | < 0.2 µM | 0.2 to 1 µM

From US7446199B2, “Compositions useful as inhibitors of protein kinases” (Vertex Pharmaceuticals Incorporated, priority 2003, dated 2008)
